Test results published in ChEMBL document CHEMBL4312013 (Eur J Med Chem, 2020).
pIC50: −log10 of the molar value. Converted amounts (≈) assume the structure as drawn. The source made the active and inactive calls. The calls are words filed in the database; no cut-off is given here.

How the values were obtained:
[1] = system: HaCaT; experiment: Cytotoxicity against human HaCaT cells assessed as reduction in cell viability incubated for 72 hrs by MTT assay; type: cell-based
[2] = system: SW480; experiment: Reduction of IL-6 level in human SW480 cells at antiproliferative IC50 incubated for 72 hrs by ELISA relative to control; type: functional
[3] = system: HaCaT; experiment: Reduction of IL-6 level in human HaCaT cells at antiproliferative IC50 incubated for 72 hrs by ELISA relative to control; type: cell-based
[4] = system: SW-620; experiment: Reduction of IL-6 level in human SW620 cells at antiproliferative IC50 incubated for 72 hrs by ELISA relative to control; type: functional
[5] = system: PC-3; experiment: Antitumor activity against human PC3 cells assessed as reduction in IL-6 level at antiproliferative IC50 incubated for 72 hrs by ELISA relative to control; type: functional
[6] = system: SW480; experiment: Antiproliferative activity against human SW480 cells assessed as reduction in cell viability incubated for 72 hrs by MTT assay; type: functional, cell-based; details: SW480, 72 h
[7] = system: SW480; experiment: Cytotoxicity against human SW480 cells at 60 uM incubated for 72 hrs by LDH release assay (reference value: […]); type: functional
[8] = system: PC-3; experiment: Cytotoxicity against human PC3 cells at 60 uM incubated for 72 hrs by LDH release assay (reference value: […]); type: functional
[9] = system: PC-3; experiment: Induction of apoptosis in human PC3 cells assessed as viable cells at antiproliferative IC50 incubated for 72 hrs by annexin V FITC and PI staining based flow cytometry (reference value: 95.1 %); type: functional
[10] = system: Staphylococcus aureus; experiment: microbe, parasite or virus in culture; type: functional; details: NCTC 4163, 18 h
[11] = system: SW-620; experiment: Cytotoxicity against human SW620 cells at 60 uM incubated for 72 hrs by LDH release assay (reference value: 4.2 %); type: functional
[12] = system: PC-3; experiment: Induction of apoptosis in human PC3 cells assessed as necrotic cells at antiproliferative IC50 incubated for 72 hrs by annexin V FITC and PI staining based flow cytometry (reference value: […]); type: functional
[13] = system: SW480; experiment: Cytotoxicity against human SW480 cells at 40 uM incubated for 72 hrs by LDH release assay (reference value: […]); type: functional
[14] = system: PC-3; experiment: Induction of apoptosis in human PC3 cells assessed as late apoptotic cells at antiproliferative IC50 incubated for 72 hrs by annexin V FITC and PI staining based flow cytometry (reference value: […]); type: functional
[15] = system: HaCaT; experiment: Induction of apoptosis in human HaCaT cells at antiproliferative IC50 incubated for 72 hrs by annexin V FITC and PI staining based flow cytometry; type: cell-based
[16] = system: SW-620; experiment: Cytotoxicity against human SW620 cells at 40 uM incubated for 72 hrs by LDH release assay (reference value: 4.2 %); type: functional
[17] = system: PC-3; experiment: Cytotoxicity against human PC3 cells at 20 uM incubated for 72 hrs by LDH release assay (reference value: […]); type: functional
[18] = system: SW-620; experiment: Induction of apoptosis in human SW620 cells at antiproliferative IC50 incubated for 72 hrs by annexin V FITC and PI staining based flow cytometry; type: functional
[19] = system: SW-620; experiment: Cytotoxicity against human SW620 cells at 10 uM incubated for 72 hrs by LDH release assay (reference value: 4.2 %); type: functional
[20] = system: Staphylococcus aureus; experiment: microbe, parasite or virus in culture; type: functional; details: ATCC 6538, 18 h
[21] = system: Staphylococcus aureus; experiment: microbe, parasite or virus in culture; type: functional; details: ATCC 29213, 18 h
[22] = system: SW-620; experiment: Cytotoxicity against human SW620 cells at 20 uM incubated for 72 hrs by LDH release assay (reference value: 4.2 %); type: functional
[23] = system: Staphylococcus epidermidis; experiment: microbe, parasite or virus in culture; type: functional; details: ATCC 12228, 18 h
[24] = system: SW480; experiment: Cytotoxicity against human SW480 cells at 20 uM incubated for 72 hrs by LDH release assay (reference value: […]); type: functional
[25] = system: SW480; experiment: Cytotoxicity against human SW480 cells at 10 uM incubated for 72 hrs by LDH release assay (reference value: […]); type: functional
[26] = system: PC-3; experiment: Induction of apoptosis in human PC3 cells assessed as early apoptotic cells at antiproliferative IC50 incubated for 72 hrs by annexin V FITC and PI staining based flow cytometry (reference value: […]); type: functional
[27] = system: PC-3; experiment: Cytotoxicity against human PC3 cells at 10 uM incubated for 72 hrs by LDH release assay (reference value: […]); type: functional
[28] = system: Enterococcus hirae; experiment: microbe, parasite or virus in culture; type: functional; details: ATCC 10541, 18 h
[29] = system: PC-3; experiment: Cytotoxicity against human PC3 cells at 40 uM incubated for 72 hrs by LDH release assay (reference value: […]); type: functional
[30] = system: Escherichia coli; experiment: microbe, parasite or virus in culture; type: functional; details: ATCC 25922, 18 h
[31] = system: Escherichia coli; experiment: microbe, parasite or virus in culture; type: functional; details: NCTC 8196, 18 h
[32] = system: Pseudomonas aeruginosa; experiment: microbe, parasite or virus in culture; type: functional; details: ATCC 15442, 18 h
[33] = system: Pseudomonas aeruginosa; experiment: microbe, parasite or virus in culture; type: functional; details: ATCC 27853, 18 h

SMILES: COc1cccc2c1C(=O)c1c(O)c3c(c(O)c1C2=O)C[C@@](O)(C(=O)CO)C[C@@H]3O[C@H]1C[C@H](N)[C@H](O)[C@H](C)O1 [DOXORUBICIN]
- pIC50 [1]: 6.54
- Activity [2]: Active
- Activity [3]: Active
- Activity [4]: Active
- Activity [5]: Active
- pIC50 [6]: 6.12

SMILES: O=C(O)c1cn(C2CC2)c2cc(N3CCNCC3)c(F)cc2c1=O [CIPROFLOXACIN]
- Activity [7]: 15%
- Activity [8]: 18%
- Activity [9]: 59.7%
- MIC [10]: 0.25 µg/mL (≈ 0.754 µM)
- Activity [11]: 9.3%
- Activity [12]: 3.9%
- Activity [13]: 14.5%
- Activity [2]: Active
- Activity [3]: Active
- Activity [14]: 31.1%
- Activity [15]: 6.2 to 12%
- Activity [16]: 9.1%
- Activity [17]: 16.5%
- Activity [18]: 31.4 - 39.2%
- Activity [19]: 8.1%
- MIC [20]: 0.5 µg/mL (≈ 1.51 µM)
- MIC [21]: 0.5 µg/mL (≈ 1.51 µM)
- Activity [22]: 8.9%
- MIC [23]: 0.25 µg/mL (≈ 0.754 µM)
- Activity [24]: 14.2%
- Activity [4]: Active
- Activity [25]: 12%
- Activity [26]: 5.3%
- Activity [27]: 14%
- MIC [28]: 8 µg/mL (≈ 24.1 µM)
- Activity [29]: 17.5%

SMILES: C/C=C/C(=O)O [CROTONIC ACID]
- MIC [10]: > 512 µg/mL
- MIC [30]: > 512 µg/mL
- MIC [20]: > 512 µg/mL
- MIC [21]: > 512 µg/mL
- MIC [31]: > 512 µg/mL
- MIC [23]: > 512 µg/mL
- MIC [32]: > 512 µg/mL
- MIC [28]: > 512 µg/mL
- MIC [33]: > 512 µg/mL

SMILES: CCCCCCCC/C=C\CCCCCCCCCCCC(=O)O [ERUCIC ACID]
- MIC [10]: > 512 µg/mL
- MIC [30]: > 512 µg/mL
- MIC [20]: 128 µg/mL (≈ 378 µM)
- MIC [21]: > 512 µg/mL
- MIC [31]: 512 µg/mL (≈ 1510 µM)
- MIC [23]: 256 µg/mL (≈ 756 µM)
- MIC [32]: 512 µg/mL (≈ 1510 µM)
- MIC [28]: 64 µg/mL (≈ 189 µM)
- MIC [33]: 512 µg/mL (≈ 1510 µM)

SMILES: C/C=C/C=C/C(=O)O [SORBIC ACID]
- MIC [10]: > 512 µg/mL
- MIC [30]: 512 µg/mL (≈ 4570 µM)
- MIC [20]: > 512 µg/mL
- MIC [21]: > 512 µg/mL
- MIC [31]: > 512 µg/mL
- MIC [23]: > 512 µg/mL
- MIC [32]: 512 µg/mL (≈ 4570 µM)
- MIC [28]: 512 µg/mL (≈ 4570 µM)
- MIC [33]: 512 µg/mL (≈ 4570 µM)

SMILES: CC/C=C\C/C=C\C/C=C\CCCCCCCC(=O)O [LINOLENIC ACID]
- MIC [10]: 128 µg/mL (≈ 460 µM)
- MIC [30]: > 512 µg/mL
- MIC [20]: 128 µg/mL (≈ 460 µM)
- MIC [21]: 128 µg/mL (≈ 460 µM)
- MIC [31]: > 512 µg/mL
- MIC [23]: 512 µg/mL (≈ 1840 µM)
- MIC [32]: 512 µg/mL (≈ 1840 µM)
- MIC [28]: 512 µg/mL (≈ 1840 µM)
- MIC [33]: 512 µg/mL (≈ 1840 µM)

SMILES: CC(C)=CCC/C(C)=C/C(=O)O
- MIC [10]: > 512 µg/mL
- MIC [30]: 512 µg/mL (≈ 3040 µM)
- MIC [20]: > 512 µg/mL
- MIC [21]: > 512 µg/mL
- MIC [31]: > 512 µg/mL
- MIC [23]: 512 µg/mL (≈ 3040 µM)
- MIC [32]: 512 µg/mL (≈ 3040 µM)
- MIC [28]: 512 µg/mL (≈ 3040 µM)
- MIC [33]: 512 µg/mL (≈ 3040 µM)

SMILES: CCCCCCCCCCCCCCCC(=O)O [PALMITIC ACID]
- MIC [10]: 512 µg/mL (≈ 2000 µM)
- MIC [30]: 512 µg/mL (≈ 2000 µM)
- MIC [20]: 512 µg/mL (≈ 2000 µM)
- MIC [21]: 512 µg/mL (≈ 2000 µM)
- MIC [31]: 512 µg/mL (≈ 2000 µM)
- MIC [23]: 512 µg/mL (≈ 2000 µM)
- MIC [32]: 512 µg/mL (≈ 2000 µM)
- MIC [28]: 512 µg/mL (≈ 2000 µM)
- MIC [33]: 512 µg/mL (≈ 2000 µM)

SMILES: CCCCCCCC/C=C/CCCCCCCC(=O)O [ELAIDIC ACID]
- MIC [10]: 512 µg/mL (≈ 1810 µM)
- MIC [30]: 512 µg/mL (≈ 1810 µM)
- MIC [20]: 512 µg/mL (≈ 1810 µM)
- MIC [21]: 512 µg/mL (≈ 1810 µM)
- MIC [31]: 512 µg/mL (≈ 1810 µM)
- MIC [23]: 512 µg/mL (≈ 1810 µM)
- MIC [32]: 512 µg/mL (≈ 1810 µM)
- MIC [28]: 512 µg/mL (≈ 1810 µM)
- MIC [33]: 512 µg/mL (≈ 1810 µM)

SMILES: CCCCCCCC/C=C\CCCCCCCC(=O)O [OLEIC ACID]
- MIC [10]: 256 to 512 µg/mL (≈ 906 to 1810 µM)
- MIC [30]: 512 µg/mL (≈ 1810 µM)
- MIC [20]: 256 µg/mL (≈ 906 µM)
- MIC [21]: 256 to 512 µg/mL (≈ 906 to 1810 µM)
- MIC [31]: 512 µg/mL (≈ 1810 µM)
- MIC [23]: 512 µg/mL (≈ 1810 µM)
- MIC [32]: 512 µg/mL (≈ 1810 µM)
- MIC [28]: 128 to 256 µg/mL (≈ 453 to 906 µM)
- MIC [33]: 256 to 512 µg/mL (≈ 906 to 1810 µM)
